Like-named read-outs stand apart in the source and are kept apart here.
Assays:
[1] = tested on: fractional exhaled nitric oxide (FeNO); assay: Phase 1 Part 2: FeNO reduction in ICS-naïve mild asthmatics; assay type: in vivo, human; settings: for Mean placebo-corrected FeNO reduction: mild asthma ICS naïve
Protocol: A status summary of the phase 1 clinical trial recruitment is shown below in Table 18. Capsules filled with blend 2a were used to achieve a 0.6 mg target dose of Compound I (0.2 mg capsules×3). Capsules filled with blend 4 were used to achieve 2.0 mg, 4.0 mg, 6.0 mg, 8.0 mg, and 12.0 mg target doses of Compound I (2.0 mg capsule×1; 4.0 mg capsule×1; 2.0 mg capsules×3; 4.0 mg capsules×2; and 4.0 mg capsules×3, respectively). Twice daily dosing (BID) was achieved by repeating the preceding regime. For example, an 8.0 mg BID dosing regime is achieved by administering two doses of 4.0 mg capsules×2.
Particular FeNO reduction data from FIG. 5 is highlighted below in Table 19. For comparison, it is established that FeNO reductions greater than 20% are clinically significant (Am. J. Respir. Crit. Care Med. 2011, 184, 602).
Day 10 pharmacokinetic parameters for Parts 2 and 3 of Phase I are summarized below in Table 28. Part 2 involved the administration of 4 different dose regimens, to subjects with mild asthma naïve to ICS therapy, over a 10-day period. Each separate cohort comprised 6 subjects receiving active treatment with 2 receiving matching placebo. Blood samples were collected to enable the measurement of Compound I concentrations in plasma. The resultant data was used to determine the PK parameters at Day 10 representing the Day on which the final dose was received.

[2] = 13-week inhalation toxicology study, rat model; assay type: in vivo; settings: in vivo, inhaled or intranasal, rat; for AUC(0-t): AUC0-24
Protocol: (§1) Lactose/MgSt-based formulations of Compound I were evaluated during a 13-week inhalation toxicology study using a rat model.
(§2) The NOAEL was assigned to the highest dose study (11.9 mg/kg/day).

rat = assay: 13-week inhalation toxicology study, rat model; assay type: in vivo; settings: for AUC0-24: rat, in vivo, inhaled or intranasal
Protocol: as §1, §2

JAK3 = target: T1, JAK3 (Homo sapiens, UniProt P52333); settings: cited from earlier work
T1 sequence (P52333 1-1124): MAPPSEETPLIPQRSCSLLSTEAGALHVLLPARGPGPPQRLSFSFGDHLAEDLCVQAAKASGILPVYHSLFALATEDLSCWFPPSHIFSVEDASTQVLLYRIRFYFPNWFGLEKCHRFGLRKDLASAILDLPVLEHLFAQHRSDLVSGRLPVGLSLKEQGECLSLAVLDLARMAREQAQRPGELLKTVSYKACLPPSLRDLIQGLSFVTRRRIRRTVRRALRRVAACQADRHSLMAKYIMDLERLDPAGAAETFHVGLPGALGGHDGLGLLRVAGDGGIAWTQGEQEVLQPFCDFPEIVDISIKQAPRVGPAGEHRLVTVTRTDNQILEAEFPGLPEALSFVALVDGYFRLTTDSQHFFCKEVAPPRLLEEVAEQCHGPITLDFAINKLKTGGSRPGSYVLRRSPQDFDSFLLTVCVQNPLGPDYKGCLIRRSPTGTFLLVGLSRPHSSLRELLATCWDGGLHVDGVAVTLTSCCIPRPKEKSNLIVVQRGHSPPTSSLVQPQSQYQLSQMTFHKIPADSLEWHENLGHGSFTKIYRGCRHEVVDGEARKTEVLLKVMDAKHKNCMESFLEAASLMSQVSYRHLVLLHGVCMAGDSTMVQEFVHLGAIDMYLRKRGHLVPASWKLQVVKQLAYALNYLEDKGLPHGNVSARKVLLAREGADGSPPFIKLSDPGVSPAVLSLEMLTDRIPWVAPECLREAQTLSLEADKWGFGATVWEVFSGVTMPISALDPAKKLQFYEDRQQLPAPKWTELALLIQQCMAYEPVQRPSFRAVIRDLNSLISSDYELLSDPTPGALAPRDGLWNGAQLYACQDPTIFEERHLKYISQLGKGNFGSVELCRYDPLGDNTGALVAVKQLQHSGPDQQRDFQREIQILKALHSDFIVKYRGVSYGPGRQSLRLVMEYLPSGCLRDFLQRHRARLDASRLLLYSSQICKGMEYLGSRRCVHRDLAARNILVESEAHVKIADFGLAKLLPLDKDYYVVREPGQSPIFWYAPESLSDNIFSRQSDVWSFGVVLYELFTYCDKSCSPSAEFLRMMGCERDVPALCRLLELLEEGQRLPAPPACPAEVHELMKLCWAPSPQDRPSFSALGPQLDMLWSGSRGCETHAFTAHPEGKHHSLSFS

[3] = Phase 1 Part 3 plasma pharmacokinetics (moderate to severe asthma); assay type: in vivo, human; settings: 4 mg BID; for AUC(0-t) / AUC(0-inf) / AUC / Cmax: human, plasma, inhaled, 4 mg
Protocol: Part 3 involved the administration of a single dose regimen (4 mg BID), to subjects (17 active:6 placebo) with moderate to severe asthma treated with background ISC/LABA therapy, over a 10-day period. Blood samples were collected to enable the measurement of KN-002 concentrations in plasma. The resultant data was used to determine the pharmacokinetic parameters at Day 10 representing the Day on which the final dose was received.

Cn1c(=O)n([C@H]2CCCN(C(=O)CC#N)C2)c2nc(-c3cnn4ccccc34)ccc21 [Compound I, (S)-3-(3-(1-methyl-2-oxo-5-(pyrazolo[1,5-a]pyridine-3-yl)-1H-imidazo[4,5-b]pyridine-3(2H)-yl)piperidin-1-yl)-3-oxopropanenitrile]
Pharmacological activity of dose regimen (FeNO) ([1]; 0.6 mg QD): minimally active dose
% subjects reporting Day 10 FeNO value <25 ppb ([1]; 0.6 mg QD (n = 6)): 16%
Mean placebo-corrected % FeNO reduction from day 1 pre-dose in ICS naïve mild asthmatics ([1]; 0.6 mg QD (n = 6), Day 10 + 3 hrs): −5.4%
Mean placebo-corrected % FeNO reduction from day 1 pre-dose in ICS naïve mild asthmatics ([1]; 0.6 mg QD (n = 6), Day 10 + 6 hrs): −6.7%
Mean placebo-corrected FeNO reduction ([1]; 0.6 mg QD, 3 capsules per dose): −7%
Mean placebo-corrected FeNO changes ([1]; 0.6 mg QD, Day 1 pre-dose to Day 10): < 20%
% subjects reporting Day 10 FeNO value <25 ppb ([1]; 2.0 mg QD (n = 6)): 16%
Mean placebo-corrected % FeNO reduction from day 1 pre-dose in ICS naïve mild asthmatics ([1]; 2.0 mg QD (n = 6), Day 10 + 3 hrs): −26.6%
Mean placebo-corrected % FeNO reduction from day 1 pre-dose in ICS naïve mild asthmatics ([1]; 2.0 mg QD (n = 6), Day 10 + 6 hrs): −24.0%
Mean placebo-corrected FeNO reduction ([1]; 2.0 mg QD, 1 capsule per dose): −24%
% subjects reporting Day 10 FeNO value <25 ppb ([1]; 4.0 mg BID (n = 6)): 67%
Mean placebo-corrected % FeNO reduction from day 1 pre-dose in ICS naïve mild asthmatics ([1]; 4.0 mg BID (n = 6), Day 10 + 3 hrs): −29.1%
Mean placebo-corrected % FeNO reduction from day 1 pre-dose in ICS naïve mild asthmatics ([1]; 4.0 mg BID (n = 6), Day 10 + 6 hrs): −30.6%
Mean placebo-corrected FeNO reduction ([1]; 4.0 mg BID, 1 capsule per dose): −26%
Mean placebo-corrected % FeNO reduction from Day 1 pre-dose ([1]; 4.0 mg BID, Day 10 + 3 hours): 29.1%
Mean placebo-corrected % FeNO reduction from Day 1 pre-dose ([1]; 4.0 mg BID, Day 10 + 6 hours): 30.6%
% subjects reporting Day 10 FeNO value <25 ppb ([1]; 8.0 mg BID (n = 6)): 50%
Mean placebo-corrected % FeNO reduction from day 1 pre-dose in ICS naïve mild asthmatics ([1]; 8.0 mg BID (n = 6), Day 10 + 3 hrs): −29.1%
Mean placebo-corrected % FeNO reduction from day 1 pre-dose in ICS naïve mild asthmatics ([1]; 8.0 mg BID (n = 6), Day 10 + 6 hrs): −25.9%
Pharmacological activity of dose regimens (FeNO) ([1]; dose regimens from 2 mg QD to 8 mg BID): pharmacologically active
NOAEL at 13 weeks ([2]; 13-week inhalation, highest dose): 11.9 mg/kg/day
AUC(0-t) ([2]; 1.3 mg/kg/day): 339 ng·h/mL
AUC(0-t) ([2]; 4 mg/kg/day): 850 ng·h/mL
AUC(0-t) ([2]; 12 mg/kg/day): 2060 ng·h/mL
AUC0-24 (rat; 1.3 mg/kg/day): 197 ng·h/mL
AUC0-24 (rat; 4 mg/kg/day): 738 ng·h/mL
AUC0-24 (rat; 12 mg/kg/day): 1950 ng·h/mL
MMAD (rat; target delivered dose 1.3 mg/kg/day (low dose)): 1.9 μm
MMAD (rat; target delivered dose 4.0 mg/kg/day (mid dose)): 2.0 μm
MMAD (rat; target delivered dose 12.0 mg/kg/day (high dose)): 2.1 μm
Inhibition of JAK3 (JAK3): potent inhibitor
AUC0-24 hours Max ([3]; Day 10): 689,494 pg · h/ml
AUC0-24 hours Min ([3]; Day 10): 123,642 pg · h/ml
AUC0-last non-zero Max ([3]; Day 10): 886,864 pg · h/ml
AUC0-last non-zero Min ([3]; Day 10): 133,118 pg · h/ml
AUC0-∞ Max ([3]; Day 10): 887,512 pg · h/ml
AUC0-∞ Min ([3]; Day 10): 134,831 pg · h/ml
AUCover dosing interval Max ([3]; Day 10): 501,523 pg · h/ml
AUCover dosing interval Min ([3]; Day 10): 105,203 pg · h/ml
Cmax Max ([3]; Day 10): 63,800 pg/ml
Cmax Min ([3]; Day 10): 15,900 pg/ml
Ctrough Geometric mean ([3]; Day 10): 9,806 pg/ml
Ctrough Max ([3]; Day 10): 23,000 pg/ml
Ctrough Mean ([3]; Day 10): 11,153 pg/ml
Ctrough Min ([3]; Day 10): 2,490 pg/ml
AUC(0-t) ([3]; Day 10, read-out: AUC0-24 hours Geometric mean): 334 ng·h/mL
AUC(0-t) ([3]; Day 10, read-out: AUC0-24 hours Mean): 365 ng·h/mL
AUC(0-t) ([3]; Day 10, read-out: AUC0-last non-zero Geometric mean): 393 ng·h/mL
AUC(0-t) ([3]; Day 10, read-out: AUC0-last non-zero Mean): 438 ng·h/mL
AUC(0-inf) ([3]; Day 10, read-out: AUC0-∞ Geometric mean): 395 ng·h/mL
AUC(0-inf) ([3]; Day 10, read-out: AUC0-∞ Mean): 439 ng·h/mL
AUC ([3]; Day 10, read-out: AUCover dosing interval Geometric mean): 257 ng·h/mL
AUC ([3]; Day 10, read-out: AUCover dosing interval Mean): 278 ng·h/mL
Cmax ([3]; Day 10, read-out: Cmax Geometric mean): 35 ng/mL
Cmax ([3]; Day 10, read-out: Cmax Mean): 37.5 ng/mL

Reference: US20240261224A1, “FORMULATION OF A PAN-JAK INHIBITOR” (KINASET THERAPEUTICS, INC., priority 2022, published 2024)
